Data as given in patent US10422787B2, “System and method for single molecule detection” (ARIZONA BOARD OF REGENTS on behalf of ARIZONA STATE …, priority 2015, dated 2019).
[ ]: non-standard residue; d: D form.

Legend:
Assay type in all cases: binding
[1] = biological target: T1, α4β1 (Homo sapiens, UniProt P05556+P13612); assay: STM break-junction, effect of electrode modification (ligand) on frequency of large current events
T1 construct: purchased R&D Systems (Bio-Techne)

[2] = biological target: T2, αvβ3 (Homo sapiens, UniProt P05106+P06756); assay: as above
T2 construct: the αVβ3 extracelluar domain of human integrin; purchased YO Proteins AB
Excerpt: The molecular specificity of the αVβ3-RGD binding was investigated by comparing the selectivity of RGD functionalized surfaces with the selectivity of surfaces functionalized with cyclic RGE, a cyclic peptide of the same charge (RGD, pI=6.09; RGE pI=6.18) and differing by only one carbon atom. The effects of functionalizing only the probe or substrate were also investigated. The results of these experiments are summarized in Table 2 (no events were observed without functionalization). […] It can be concluded that one chemical contact is required for the high conductance to be observed, and that the specificity and frequency of events increases with the chemical specificity of the contact. In addition, specific binding results in larger current peaks at larger retraction distances than obtained with less-specific binding.
RGE is a cyclic peptide differing from RGD by only one carbon atom.
Functionalizing STM probes and substrates: The STM probes were etched from a 0.25 mm Pd wire (California Fine Wires) by an AC electrochemical etching method, and then insulated with high-density polyethylene, leaving an open apex of a few tens of nanometers in diameter. Before use, the probes were tested in 1 mM phosphate buffer (pH=7.4) at 0.5 V bias to ensure that the leakage current was <1 pA. For functionalization, the probe was gently cleaned using ethanol and water, respectively, and then dried with nitrogen flow. The probe was immersed in a 0.5 mg/mL peptide solution for ˜20 h. After that, the probe was taken out, rinsed with water, dried with nitrogen gas, and used immediately. Palladium substrates were prepared by depositing a 100 nm palladium film onto a 10 nm titanium adhesion layer coated onto a 750 μm thick silicon wafer using an electron-beam evaporator (Lesker PVD 75). The substrate was annealed with a hydrogen flame immediately before being functionalized by the same method as that for probe. Fourier transform infrared (FTIR) spectroscopy was used to characterize the functionalization. Pd substrates were also treated by UV- Ozone cleaner and H2 gas reduction (to remove PdO).
Preparation of RGD and RGE: RGD peptide, cyclo(Arg-Gly-Asp-D-Phe-Cys), was obtained from Peptides International (Louisville, Ky.). RGE peptide, cyclo(Arg-Gly-Glu-D-Phe-Cys), was synthesized by CPC Scientific (Sunnyvale, Calif.) with a purity>95%. For chip and STM tip functionalization, peptides were dissolved to a final concentration of 0.5 mg/mL in a freshly degassed 1 mM phosphate buffer (pH=7.4), which was prepared using water from a Milli-Q system with a resistance of ˜18 MΩ and a total organic carbon contamination below 4 ppb.
STM Measurements: Break junction measurements were carried out with a PicoSPM scanning probe microscope (Agilent Technologies). The Teflon liquid cells were cleaned in Piranha solution and then sonicated in Milli-Q water three times (Note that: the Piranha is highly corrosive and must be handled with extreme care). The current set point was 4 pA. Different sample bias was applied to the substrate as required. For better surface charge control, an Ag/AgCl with a salt bridge (10 mM KCl) was connected to the substrate. The tip was approached to the substrate with an integral and proportional gain of 1.0 and then left to stabilize for 0.5 h. For break junction measurements, the tip was first brought into the set point position. After 5 s of waiting, the tip was retracted 10 nm from the substrate with a speed of 0.17 nm/s, during which a current-distance trace was recorded. Subsequently, the tip was re-engaged and the retraction process repeated. About one hundred traces were collected for each experiment and at least three independent experiments were conducted for each sample (using a different substrate and tip each time).

[3] = biological target: αVβ3 integrin (Homo sapiens, UniProt P05106+P06756); assay: Capture of αVβ3 integrin by cyclic RGD peptide in junction device
Excerpt: In experiments, the concentration used to obtain signals with the single molecule capture device had to be quite high (i.e., nanomolar or higher) in order for the probability of capturing a single molecule in a reasonable time to be significant. In some embodiments, this probability is proportional to the volume from which molecules can be captured in a reasonable time. For example, if the molecules diffuse freely with a diffusion constant D (e.g., about 10^−11 m^2/s), then the volume from which molecules can be collected in a time t, over a linear junction length L, is given approximately by πr^2L where r^2=Dt. Taking t=60 s and L=36 nm (approximately the length of the junction around the edge of a 12 nm diameter pore), about 40 molecules would be present at 1 nM concentration in the resulting volume of 6.5×10^−17 m^3 (=6.5×10^−14 liters). […] Thus, for a device with X=10 μm, the capture volume in 1 minute capture time becomes 10^−14 m^3 or almost 100× greater. In fact, upon the solution being flowed over the device, the effective capture length is orders of magnitude greater. […] Thus, if about a linear cm of fluid is flowed past a junction slowly enough that each volume of length equal to the junction length spends about a minute over the junction, then concentrations as small as a femtomole will yield a signal.

T2 sequence (P06756 31-992 limits assumed): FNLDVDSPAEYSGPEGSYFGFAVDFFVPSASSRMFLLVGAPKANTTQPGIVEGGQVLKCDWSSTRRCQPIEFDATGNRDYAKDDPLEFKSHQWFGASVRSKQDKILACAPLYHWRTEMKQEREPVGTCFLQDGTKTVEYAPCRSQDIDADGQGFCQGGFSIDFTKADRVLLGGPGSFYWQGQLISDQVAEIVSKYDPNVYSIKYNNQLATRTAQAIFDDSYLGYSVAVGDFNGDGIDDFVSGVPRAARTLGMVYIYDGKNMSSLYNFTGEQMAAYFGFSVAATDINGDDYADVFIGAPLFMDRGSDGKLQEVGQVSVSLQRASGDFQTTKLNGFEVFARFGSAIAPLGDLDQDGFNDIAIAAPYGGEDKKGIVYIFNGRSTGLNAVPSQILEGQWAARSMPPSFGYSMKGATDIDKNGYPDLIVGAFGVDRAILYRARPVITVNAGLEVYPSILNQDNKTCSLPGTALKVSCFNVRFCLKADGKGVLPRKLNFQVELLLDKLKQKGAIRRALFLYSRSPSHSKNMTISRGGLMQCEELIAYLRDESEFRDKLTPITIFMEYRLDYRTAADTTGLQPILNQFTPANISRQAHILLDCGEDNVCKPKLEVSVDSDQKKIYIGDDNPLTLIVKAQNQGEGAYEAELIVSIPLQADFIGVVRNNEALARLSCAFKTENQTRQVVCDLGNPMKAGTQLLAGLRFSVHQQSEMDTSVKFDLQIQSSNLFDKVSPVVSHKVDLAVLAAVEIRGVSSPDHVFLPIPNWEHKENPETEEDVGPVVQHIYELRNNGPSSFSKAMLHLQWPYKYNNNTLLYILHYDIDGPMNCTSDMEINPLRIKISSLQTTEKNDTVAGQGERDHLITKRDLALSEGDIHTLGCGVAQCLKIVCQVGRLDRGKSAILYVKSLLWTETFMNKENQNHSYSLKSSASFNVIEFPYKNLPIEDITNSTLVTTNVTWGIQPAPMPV
T2 sequence (P05106 27-718 limits assumed): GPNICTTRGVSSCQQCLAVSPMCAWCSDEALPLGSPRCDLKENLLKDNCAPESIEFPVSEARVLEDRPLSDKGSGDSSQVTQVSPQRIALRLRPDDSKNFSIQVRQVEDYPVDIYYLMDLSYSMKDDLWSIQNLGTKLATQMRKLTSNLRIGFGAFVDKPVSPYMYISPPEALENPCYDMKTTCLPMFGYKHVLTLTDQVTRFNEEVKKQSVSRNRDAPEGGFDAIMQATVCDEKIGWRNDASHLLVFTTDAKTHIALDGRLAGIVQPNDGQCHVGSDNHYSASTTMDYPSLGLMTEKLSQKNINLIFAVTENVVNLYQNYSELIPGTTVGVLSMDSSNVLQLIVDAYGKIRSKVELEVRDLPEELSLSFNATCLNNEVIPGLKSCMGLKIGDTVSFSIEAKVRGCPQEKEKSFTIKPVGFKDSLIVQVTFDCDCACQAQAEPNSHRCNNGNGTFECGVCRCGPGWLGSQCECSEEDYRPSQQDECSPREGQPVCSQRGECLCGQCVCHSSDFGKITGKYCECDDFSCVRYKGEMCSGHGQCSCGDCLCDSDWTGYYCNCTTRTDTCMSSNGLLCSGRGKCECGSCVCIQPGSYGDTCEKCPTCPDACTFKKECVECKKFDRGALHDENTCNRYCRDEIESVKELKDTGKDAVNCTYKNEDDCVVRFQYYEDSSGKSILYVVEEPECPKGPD
T1 sequence (P13612 34-977 limits assumed): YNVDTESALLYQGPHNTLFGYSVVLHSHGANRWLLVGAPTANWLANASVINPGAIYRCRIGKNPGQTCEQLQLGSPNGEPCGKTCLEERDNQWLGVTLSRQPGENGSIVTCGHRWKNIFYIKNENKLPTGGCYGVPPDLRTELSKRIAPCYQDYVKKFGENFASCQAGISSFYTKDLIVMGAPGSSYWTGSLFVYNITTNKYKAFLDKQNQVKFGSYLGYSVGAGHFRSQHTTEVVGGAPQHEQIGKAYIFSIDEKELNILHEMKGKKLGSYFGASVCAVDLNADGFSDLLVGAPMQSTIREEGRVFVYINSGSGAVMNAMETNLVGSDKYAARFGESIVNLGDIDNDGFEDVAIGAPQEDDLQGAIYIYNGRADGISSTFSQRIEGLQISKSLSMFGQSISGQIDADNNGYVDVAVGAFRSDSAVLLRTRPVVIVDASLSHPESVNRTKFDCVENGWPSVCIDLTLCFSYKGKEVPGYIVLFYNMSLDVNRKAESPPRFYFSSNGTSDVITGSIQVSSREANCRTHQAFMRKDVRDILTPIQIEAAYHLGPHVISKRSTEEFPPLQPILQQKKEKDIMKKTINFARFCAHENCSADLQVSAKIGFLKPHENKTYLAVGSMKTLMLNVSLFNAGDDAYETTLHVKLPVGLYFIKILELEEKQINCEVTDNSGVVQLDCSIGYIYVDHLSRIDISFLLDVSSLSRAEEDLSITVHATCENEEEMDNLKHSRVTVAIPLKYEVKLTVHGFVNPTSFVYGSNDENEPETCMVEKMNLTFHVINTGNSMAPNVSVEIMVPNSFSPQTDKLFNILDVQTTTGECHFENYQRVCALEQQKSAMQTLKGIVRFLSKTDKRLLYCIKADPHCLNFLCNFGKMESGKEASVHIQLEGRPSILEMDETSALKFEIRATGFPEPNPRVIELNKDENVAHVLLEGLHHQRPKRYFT
T1 sequence (P05556 21-728 limits assumed): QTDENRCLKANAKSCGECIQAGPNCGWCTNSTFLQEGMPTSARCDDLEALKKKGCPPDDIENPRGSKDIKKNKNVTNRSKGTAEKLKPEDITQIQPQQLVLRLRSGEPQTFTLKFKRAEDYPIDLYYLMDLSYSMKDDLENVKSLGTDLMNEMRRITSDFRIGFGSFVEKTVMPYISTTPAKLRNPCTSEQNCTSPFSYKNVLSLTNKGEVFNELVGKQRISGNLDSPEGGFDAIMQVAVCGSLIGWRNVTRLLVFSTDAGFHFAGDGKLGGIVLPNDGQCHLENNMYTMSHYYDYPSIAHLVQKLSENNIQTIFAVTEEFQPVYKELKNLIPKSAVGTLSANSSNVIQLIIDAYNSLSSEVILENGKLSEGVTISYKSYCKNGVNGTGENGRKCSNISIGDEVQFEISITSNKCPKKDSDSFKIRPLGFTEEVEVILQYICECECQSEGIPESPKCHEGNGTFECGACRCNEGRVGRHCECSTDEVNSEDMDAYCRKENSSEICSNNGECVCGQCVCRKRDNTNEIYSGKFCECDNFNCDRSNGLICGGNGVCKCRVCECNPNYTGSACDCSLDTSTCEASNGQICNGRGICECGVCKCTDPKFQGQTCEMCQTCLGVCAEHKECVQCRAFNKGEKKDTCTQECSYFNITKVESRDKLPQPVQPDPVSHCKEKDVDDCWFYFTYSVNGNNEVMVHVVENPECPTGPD
αVβ3 integrin, sequence (P06756 31-992 limits assumed): as the sequence (P06756 31-992 limits assumed) above
αVβ3 integrin, sequence (P05106 27-718 limits assumed): as the sequence (P05106 27-718 limits assumed) above

| Substance | frequency of large current events, α4β1 ([1]; Modification Tip + Substrate) | frequency of large current events, α4β1 ([1]; Modification Tip only) | Ratio (selectivity αvβ3 vs α4β1) ([2]; Modification Tip + Substrate) | frequency of large current events, αvβ3 ([2]; Modification Tip + Substrate) | Ratio (selectivity αvβ3 vs α4β1) ([2]; Modification Tip only) | frequency of large current events, αvβ3 ([2]; Modification Tip only) | binding process [3] |
| --- | --- | --- | --- | --- | --- | --- | --- |
| cyclo(RGD[dF]C) [RGD] | 0.19 | 0.21 | 3.1 | 0.57 | 2.6 | 0.55 | almost irreversible |
| cyclo(RGE[dF]C) [RGE] | 0.25 | 0.28 | 1.2 | 0.31 | 1.3 | 0.36 | – |
